Series [1] has as its target T1, Acetylcholinesterase (Electrophorus electricus, UniProt O42275). Description: Inhibition of Electric eel AChE using ATCI as substrate preincubated with enzyme for 60 mins followed by substrate addition and measured for 120 secs by spectrophotometric based Ellman's method. (Ellman's reagent forms a yellow product with free thiols.)
Series [2] concerns Rattus norvegicus. Briefly: Memory enhancement effect in dizocilpine-induced Wistar (Krf:WI) rat model of amnesia assessed as increase in step through latency at 1.25 to 5 mg/kg, ip measured after 30 to 45 mins by step-through passive avoidance test. It is filed as functional, organism-based. The following applies: dose 1.25-5 mg/kg, time 30-45 min.
Series [3] relates to Rattus norvegicus. Briefly: Memory enhancement effect in dizocilpine-induced Wistar (Krf:WI) rat model of amnesia assessed as decrease in transfer latency time at 1.25 to 5 mg/kg, ip measured after 30 to 45 mins by elevated plus maze test. It is filed as functional, organism-based. As to conditions: dose 1.25-5 mg/kg, time 30-45 min.
Series [4] deals with Cholinesterase (Equus caballus) (UniProt P81908). Briefly: Non-competitive inhibition of equine serum BChE using BTCI as substrate incubated for 5 mins followed by substrate addition and measured after 5 mins by spectrophotometric based Lineweaver-Burk plot analysis. It is filed as cell-free. The following applies: time 10.0 min.
Cholinesterase (Equus caballus), sequence (P81908 whole entry): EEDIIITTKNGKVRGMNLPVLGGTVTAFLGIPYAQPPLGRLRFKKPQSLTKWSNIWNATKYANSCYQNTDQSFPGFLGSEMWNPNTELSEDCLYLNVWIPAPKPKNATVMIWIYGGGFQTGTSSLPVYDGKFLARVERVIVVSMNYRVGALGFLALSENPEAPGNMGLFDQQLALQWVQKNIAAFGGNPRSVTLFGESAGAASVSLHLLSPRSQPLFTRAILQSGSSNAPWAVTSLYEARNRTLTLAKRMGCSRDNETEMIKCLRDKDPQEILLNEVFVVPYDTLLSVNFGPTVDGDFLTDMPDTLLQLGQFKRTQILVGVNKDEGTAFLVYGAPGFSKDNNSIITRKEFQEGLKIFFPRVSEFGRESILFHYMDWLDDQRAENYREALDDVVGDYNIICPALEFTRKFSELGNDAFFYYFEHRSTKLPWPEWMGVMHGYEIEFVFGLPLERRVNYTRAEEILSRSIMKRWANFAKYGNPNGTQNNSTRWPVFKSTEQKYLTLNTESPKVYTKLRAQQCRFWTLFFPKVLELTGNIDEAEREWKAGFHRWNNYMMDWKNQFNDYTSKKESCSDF
Series [5] concerns the target T1, Acetylcholinesterase.
Description: Inhibition of Electric eel AChE using ATCI as substrate incubated for 5 mins followed by substrate addition and measured after 5 mins by spectrophotometric based Ellman's method
For series [6], the system named is Mus musculus. Description: Analgesic activity in formalin-induced nociception CD-1 mouse model assessed as reduction in pain behaviour by measuring less licking of formalin injected hind paw compound administered intraperitoneally prior to formalin induction and measured during late phase (15 to 30 mins after formalin injection) by formalin test. The following applies: CD-1, ip, time 15-30 min. Format: functional.

A further series can be described thus: in vitro. As to conditions: PAMPA, pH 7.4. (In general: PAMPA measures passive passage across an artificial lipid membrane.)
For series [7], the target named is T2, MAO-A (Homo sapiens, UniProt P21397).
T2 sequence (P21397 whole entry): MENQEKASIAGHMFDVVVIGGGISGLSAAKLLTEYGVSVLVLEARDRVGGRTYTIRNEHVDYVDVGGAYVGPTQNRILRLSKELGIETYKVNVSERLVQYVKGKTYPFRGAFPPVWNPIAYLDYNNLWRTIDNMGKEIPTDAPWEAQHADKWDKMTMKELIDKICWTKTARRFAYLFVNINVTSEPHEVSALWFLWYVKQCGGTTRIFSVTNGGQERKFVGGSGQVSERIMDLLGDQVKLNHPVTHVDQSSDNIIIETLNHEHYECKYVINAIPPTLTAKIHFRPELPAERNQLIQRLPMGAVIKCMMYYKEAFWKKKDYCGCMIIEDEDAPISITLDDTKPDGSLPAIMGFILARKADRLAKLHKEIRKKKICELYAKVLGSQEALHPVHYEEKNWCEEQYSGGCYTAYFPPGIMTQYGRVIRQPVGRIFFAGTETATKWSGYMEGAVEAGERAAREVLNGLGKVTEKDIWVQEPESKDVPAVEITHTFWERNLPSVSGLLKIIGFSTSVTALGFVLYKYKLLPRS
Briefly: in vitro. The following applies: probe p-tyramine.
Description: Inhibition of recombinant human MAO-A expressed in baculovirus infected BTI cells at 1 uM using p-tyramine as substrate by fluorometric assay relative to control

Series [8] addresses T2, MAO-A. Description: Inhibition of recombinant human MAO-A expressed in baculovirus infected BTI cells at 10 uM using p-tyramine as substrate by fluorometric assay relative to control. The following applies: probe p-tyramine.
Series [9] concerns the target T3, Amine oxidase [flavin-containing] B (Homo sapiens, UniProt P27338).
T3 sequence (P27338 whole entry): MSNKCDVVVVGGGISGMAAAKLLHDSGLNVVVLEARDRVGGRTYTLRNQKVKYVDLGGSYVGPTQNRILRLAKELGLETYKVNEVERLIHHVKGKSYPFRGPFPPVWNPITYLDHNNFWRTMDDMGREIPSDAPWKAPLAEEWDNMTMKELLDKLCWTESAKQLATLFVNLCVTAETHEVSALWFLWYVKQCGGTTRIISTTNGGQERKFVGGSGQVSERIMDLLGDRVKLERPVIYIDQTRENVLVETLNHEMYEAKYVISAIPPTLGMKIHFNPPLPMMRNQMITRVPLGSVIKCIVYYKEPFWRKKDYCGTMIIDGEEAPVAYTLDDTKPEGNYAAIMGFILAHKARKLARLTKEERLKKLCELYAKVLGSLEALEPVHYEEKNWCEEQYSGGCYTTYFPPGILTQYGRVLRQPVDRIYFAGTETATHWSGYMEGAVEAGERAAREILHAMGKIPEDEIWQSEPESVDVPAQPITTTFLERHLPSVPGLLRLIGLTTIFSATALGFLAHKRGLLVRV
Description: biochemical. It is filed as cell-based, BTI.
Description: Inhibition of recombinant human MAO-B expressed in baculovirus infected BTI cells using p-tyramine as substrate by fluorometric assay

Series [10] deals with Acetylcholinesterase (Electrophorus electricus) (UniProt O42275). Description: Non-competitive inhibition of Electric eel AChE using ATCI as substrate incubated for 5 mins followed by substrate addition and measured after 5 mins by spectrophotometric based Lineweaver-Burk plot analysis. As to conditions: time 10.0 min.
Acetylcholinesterase (Electrophorus electricus), sequence (O42275 24-633 limits assumed): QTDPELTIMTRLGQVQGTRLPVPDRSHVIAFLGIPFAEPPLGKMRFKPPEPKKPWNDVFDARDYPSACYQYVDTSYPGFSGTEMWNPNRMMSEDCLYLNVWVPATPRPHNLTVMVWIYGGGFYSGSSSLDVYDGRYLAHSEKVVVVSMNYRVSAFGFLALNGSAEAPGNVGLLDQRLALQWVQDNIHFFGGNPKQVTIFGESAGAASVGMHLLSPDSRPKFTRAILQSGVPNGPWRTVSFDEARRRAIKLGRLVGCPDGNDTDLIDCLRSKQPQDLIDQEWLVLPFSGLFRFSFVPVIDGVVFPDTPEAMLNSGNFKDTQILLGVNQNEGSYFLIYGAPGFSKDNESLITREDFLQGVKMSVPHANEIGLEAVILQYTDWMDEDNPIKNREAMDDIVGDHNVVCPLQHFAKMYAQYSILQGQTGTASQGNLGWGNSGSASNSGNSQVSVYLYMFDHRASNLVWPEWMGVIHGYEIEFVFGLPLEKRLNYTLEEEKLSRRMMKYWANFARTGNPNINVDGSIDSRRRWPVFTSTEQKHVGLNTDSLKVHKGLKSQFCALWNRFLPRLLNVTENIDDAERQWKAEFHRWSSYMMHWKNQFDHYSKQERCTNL
For series [11], the target named is Acetylcholinesterase (Homo sapiens, UniProt P22303). Briefly: Inhibition of recombinant human AChE using ATCI as substrate incubated for 5 mins followed by substrate addition and measured after 5 mins by spectrophotometric based Ellman's method.
Acetylcholinesterase (Homo sapiens, UniProt P22303), sequence (P22303 whole entry): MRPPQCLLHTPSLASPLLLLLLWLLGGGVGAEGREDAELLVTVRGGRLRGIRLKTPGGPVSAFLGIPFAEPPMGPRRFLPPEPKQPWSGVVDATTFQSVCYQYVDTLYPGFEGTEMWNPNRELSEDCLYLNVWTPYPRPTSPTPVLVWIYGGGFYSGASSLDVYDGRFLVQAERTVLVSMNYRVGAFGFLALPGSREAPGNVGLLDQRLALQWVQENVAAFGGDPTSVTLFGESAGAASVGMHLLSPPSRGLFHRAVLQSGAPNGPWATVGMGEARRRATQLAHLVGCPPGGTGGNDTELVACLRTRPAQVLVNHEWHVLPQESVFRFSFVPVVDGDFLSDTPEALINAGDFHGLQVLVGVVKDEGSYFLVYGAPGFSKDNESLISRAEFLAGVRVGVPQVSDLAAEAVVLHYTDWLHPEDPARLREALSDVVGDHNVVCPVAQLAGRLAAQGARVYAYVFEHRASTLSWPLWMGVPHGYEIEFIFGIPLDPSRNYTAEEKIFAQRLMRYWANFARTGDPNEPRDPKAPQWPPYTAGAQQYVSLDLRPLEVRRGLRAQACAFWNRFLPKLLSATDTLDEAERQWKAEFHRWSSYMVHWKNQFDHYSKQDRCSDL
Series [12] concerns the target Cholinesterase (Homo sapiens, UniProt P06276).
Description: Inhibition of human BuChE by spectrophotometric based Ellman's method
A further series addresses Histamine H3 receptor (Homo sapiens, UniProt Q9Y5N1). Description: biochemical.
The target in series [13] is Acetylcholinesterase (Electrophorus electricus) (UniProt O42275). Briefly: Non-competitive inhibition of Electric eel AChE using ATCI as substrate incubated for 5 mins followed by substrate addition and measured after 5 mins by spectrophotometric based Cornish-Bowden plot analysis. The following applies: time 10.0 min.
Series [14] deals with Cholinesterase (Equus caballus) (UniProt P81908). Briefly: Non-competitive inhibition of equine serum BChE using BTCI as substrate incubated for 5 mins followed by substrate addition and measured after 5 mins by spectrophotometric based Cornish-Bowden plot analysis. Format: cell-free. The following applies: time 10.0 min.
Series [15] deals with Mus musculus. Briefly: Analgesic activity in formalin-induced nociception CD-1 mouse model assessed as reduction in pain behaviour by measuring less licking of formalin injected hind paw compound administered intraperitoneally prior to formalin induction and measured during early phase (0 to 5 mins after formalin injection) by formalin test. Format: functional. As to conditions: CD-1, ip, time 0-5 min.

In series [16] the target is Cholinesterase (Equus caballus, UniProt P81908).
Cholinesterase (Equus caballus, UniProt P81908), sequence (P81908 whole entry): as the sequence (P81908 whole entry) above
Description: Inhibition of equine serum BChE using BTCI as substrate incubated for 5 mins followed by substrate addition and measured after 5 mins by spectrophotometric based Ellman's method

SMILES strings stand for the structures. Active and inactive are the calls of the source. The calls are words filed in the database; no cut-off is given here. Bounds are passed on as bounds.

T1 sequence (O42275 whole entry): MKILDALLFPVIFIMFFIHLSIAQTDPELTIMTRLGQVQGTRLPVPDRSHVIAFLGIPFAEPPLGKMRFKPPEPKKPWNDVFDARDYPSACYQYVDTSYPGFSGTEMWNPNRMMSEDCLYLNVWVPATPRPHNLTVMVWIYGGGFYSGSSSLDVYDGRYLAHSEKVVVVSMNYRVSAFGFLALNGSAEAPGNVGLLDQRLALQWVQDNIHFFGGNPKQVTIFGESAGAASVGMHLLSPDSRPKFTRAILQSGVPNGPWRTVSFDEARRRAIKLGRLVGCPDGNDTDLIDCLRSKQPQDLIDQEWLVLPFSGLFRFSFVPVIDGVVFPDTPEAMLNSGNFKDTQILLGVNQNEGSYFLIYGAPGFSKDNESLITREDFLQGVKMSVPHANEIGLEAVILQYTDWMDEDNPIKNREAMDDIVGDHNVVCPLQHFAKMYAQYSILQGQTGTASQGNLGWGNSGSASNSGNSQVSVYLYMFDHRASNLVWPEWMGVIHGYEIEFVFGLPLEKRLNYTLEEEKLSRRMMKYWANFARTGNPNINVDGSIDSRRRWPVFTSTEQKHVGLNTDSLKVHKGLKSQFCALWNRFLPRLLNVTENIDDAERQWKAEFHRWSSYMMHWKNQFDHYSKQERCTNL
Cholinesterase (Homo sapiens, UniProt P06276), sequence (P06276 whole entry): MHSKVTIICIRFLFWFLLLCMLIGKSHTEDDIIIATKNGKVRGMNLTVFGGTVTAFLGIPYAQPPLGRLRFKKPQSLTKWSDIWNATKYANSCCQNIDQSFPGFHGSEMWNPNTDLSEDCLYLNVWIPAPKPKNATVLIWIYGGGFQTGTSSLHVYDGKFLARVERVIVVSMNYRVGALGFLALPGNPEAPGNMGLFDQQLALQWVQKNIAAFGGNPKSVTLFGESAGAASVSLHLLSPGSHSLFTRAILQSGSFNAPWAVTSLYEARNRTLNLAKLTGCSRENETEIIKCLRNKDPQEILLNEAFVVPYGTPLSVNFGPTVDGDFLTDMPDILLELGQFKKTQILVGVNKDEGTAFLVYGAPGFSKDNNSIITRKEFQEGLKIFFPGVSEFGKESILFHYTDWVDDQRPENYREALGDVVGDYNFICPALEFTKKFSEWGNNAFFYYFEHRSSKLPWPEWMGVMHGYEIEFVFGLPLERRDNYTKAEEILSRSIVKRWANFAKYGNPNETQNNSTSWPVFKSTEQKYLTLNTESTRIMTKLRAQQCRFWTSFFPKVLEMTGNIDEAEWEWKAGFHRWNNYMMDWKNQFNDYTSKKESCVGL
Histamine H3 receptor, sequence (Q9Y5N1 whole entry): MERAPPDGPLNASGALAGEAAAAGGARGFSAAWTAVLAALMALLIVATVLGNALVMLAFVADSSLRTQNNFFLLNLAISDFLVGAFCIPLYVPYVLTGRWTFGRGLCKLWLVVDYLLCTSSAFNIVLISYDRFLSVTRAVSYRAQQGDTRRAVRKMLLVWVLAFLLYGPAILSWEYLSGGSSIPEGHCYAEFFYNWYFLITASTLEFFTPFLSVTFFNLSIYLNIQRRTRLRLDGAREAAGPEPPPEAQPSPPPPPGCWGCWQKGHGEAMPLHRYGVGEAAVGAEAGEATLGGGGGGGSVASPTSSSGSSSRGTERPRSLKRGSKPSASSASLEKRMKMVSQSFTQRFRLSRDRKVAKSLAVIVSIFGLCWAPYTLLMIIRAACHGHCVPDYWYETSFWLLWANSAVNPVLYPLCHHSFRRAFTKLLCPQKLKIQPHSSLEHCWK
Description for Histamine H3 receptor: Displacement of [3H]N-alpha-methylhistamine from recombinant human histamine H3 receptor expressed in CHO-K1 cells by microbeta scintillation analysis

Usually IC50 stands for the concentration that gives 50% inhibition. Turning to `O=c1c2ccccc2oc2cc(OCCCCCN3CCCCC3)cc(O)c12`, 460 nM corresponded to half-maximal inhibition against Acetylcholinesterase [1] (IC50).
Broadly, the inhibition is the share of the control response that was lost under treatment. What is called ED50 is the dose that gives a 50% effect, or the effect in half of the subjects. The Papp is the rate of passage across a membrane or cell layer, normalised by area and donor concentration. Read a low Papp as slow passage. As usually defined, the Ki is a dissociation constant, usually derived from enzyme kinetics or from competition with a known ligand. As to `O=c1c2cc(Cl)ccc2oc2ccc(OCCCCCN3CCCCCC3)cc12`, the result in the series with Rattus norvegicus [2] and with Rattus norvegicus [3] was inactive. In addition, the inhibition result in series [4], in [10], in series [13] and in series [14] was “Active” in each case. The IC50 on Acetylcholinesterase [5] was determined as 136 nM; in series [9], 897 nM; on Acetylcholinesterase [11] it was 120 nM; on Cholinesterase [12], 1590 nM; at Cholinesterase [16] it was 394 nM. The median effective dose (ED50) was 22.5 mg/kg with Mus musculus [6] and 27.3 mg/kg in the series with Mus musculus [15]. In addition, the apparent permeability (Papp) at 5 h, 200 µM in the series “in vitro” stood at 2.2 ×10⁻⁶ cm/s. In addition, at MAO-A [7], at 1 µM the inhibition was 12%. Moreover, on MAO-A [8], the inhibition at 10 µM was below 50%. On Histamine H3 receptor, the Ki amounted to 100 nM.

These data come from ChEMBL document CHEMBL4706551, “Rational design of new multitarget histamine H receptor ligands as potential candidates for treatment of Alzheimer's disease” (Eur J Med Chem, 2020).
